Patent US9586961B2, “Homopiperazine derivatives as protein tyrosine kinase inhibitors and pharmaceutical use thereof” (LEO PHARMA A/S, priority 2010, dated 2017)

Assays:
Format in all cases: biochemical
[1] = target: T1, JAK1 (Homo sapiens, UniProt P23458); test: JAK1 kinase assay (HTRF, inhibition of phosphorylation of a synthetic peptide); conditions: catalytic domain aa 850-1154, GST-tag; 7 μM ATP (Km); read-out: JAK1 kinase inhibitory activity (EC50)
T1 construct: JAK1 (aa 850-1154) and TYK2 (aa 871-1187) are expressed with an N-terminally fused GST-tag; GST (N); purchased Carna Biosciences, Inc; host or cells: baculovirus expression system
T1 sequence (P23458 850-1154): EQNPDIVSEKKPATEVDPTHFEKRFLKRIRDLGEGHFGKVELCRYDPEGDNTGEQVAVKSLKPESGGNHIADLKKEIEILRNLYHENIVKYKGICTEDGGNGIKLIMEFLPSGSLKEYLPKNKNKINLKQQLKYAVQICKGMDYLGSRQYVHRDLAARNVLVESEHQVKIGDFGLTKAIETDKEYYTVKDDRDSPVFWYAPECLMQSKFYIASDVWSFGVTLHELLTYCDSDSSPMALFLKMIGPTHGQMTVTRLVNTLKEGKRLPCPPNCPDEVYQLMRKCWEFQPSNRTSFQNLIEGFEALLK
How it was run: (§1)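 HTRF detection (streptavidin-XL665, cryptate anti-phospho antibody, overnight in the dark) after EDTA stop of a 20-30 min RT reaction on 1 μM TK substrate-biotin. Km-level ATP per kinase: 7 μM for JAK1 and 13 μM for TYK2, both N-terminal GST, with 50 nM SEB; 4 μM for JAK2 and 2 μM for JAK3, both His-tagged. Catalytic domains only; DMSO 0.75%.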

[2] = target: T2, JAK2 (Homo sapiens, UniProt O60674); test: JAK2 kinase assay (HTRF, inhibition of phosphorylation of a synthetic peptide); conditions: catalytic domain, His-tag; 4 μM ATP (Km); read-out: JAK2 kinase inhibitory activity (EC50)
T2 construct: All four purified enzymes contain only the catalytic domain; His (N); purchased Carna Biosciences, Inc; host or cells: baculovirus expression system
T2 sequence (O60674 849-1124 limits assumed): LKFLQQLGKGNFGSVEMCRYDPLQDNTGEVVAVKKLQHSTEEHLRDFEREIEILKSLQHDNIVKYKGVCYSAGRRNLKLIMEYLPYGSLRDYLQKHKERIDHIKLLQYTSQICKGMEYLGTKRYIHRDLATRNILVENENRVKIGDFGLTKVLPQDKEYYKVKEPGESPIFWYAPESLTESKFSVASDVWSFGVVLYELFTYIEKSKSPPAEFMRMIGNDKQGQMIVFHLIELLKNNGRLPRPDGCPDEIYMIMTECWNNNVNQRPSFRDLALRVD
How it was run: as §1

[3] = target: T3, JAK3 (Homo sapiens, UniProt P52333); test: JAK3 kinase assay (HTRF, inhibition of phosphorylation of a synthetic peptide); conditions: catalytic domain, His-tag; 2 μM ATP (Km); read-out: JAK3 kinase inhibitory activity (EC50)
T3 construct: All four purified enzymes contain only the catalytic domain; His (N); purchased Carna Biosciences, Inc; host or cells: baculovirus expression system
T3 sequence (P52333 822-1111 limits assumed): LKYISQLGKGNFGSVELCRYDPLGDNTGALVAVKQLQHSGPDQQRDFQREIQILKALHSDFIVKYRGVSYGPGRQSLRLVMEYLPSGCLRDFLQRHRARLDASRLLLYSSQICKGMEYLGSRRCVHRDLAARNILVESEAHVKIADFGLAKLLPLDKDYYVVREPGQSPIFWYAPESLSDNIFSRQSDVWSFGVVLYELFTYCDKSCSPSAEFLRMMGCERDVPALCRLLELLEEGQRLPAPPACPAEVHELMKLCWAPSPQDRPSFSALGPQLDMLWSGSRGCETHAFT
How it was run: as §1

[4] = target: T4, TYK2 (Homo sapiens, UniProt P29597); test: TYK2 kinase assay (HTRF, inhibition of phosphorylation of a synthetic peptide); conditions: catalytic domain aa 871-1187, GST-tag; 13 μM ATP (Km); read-out: TYK2 kinase inhibitory activity (EC50)
T4 construct: JAK1 (aa 850-1154) and TYK2 (aa 871-1187) are expressed with an N-terminally fused GST-tag; GST (N); purchased Carna Biosciences, Inc; host or cells: baculovirus expression system
T4 sequence (P29597 871-1187): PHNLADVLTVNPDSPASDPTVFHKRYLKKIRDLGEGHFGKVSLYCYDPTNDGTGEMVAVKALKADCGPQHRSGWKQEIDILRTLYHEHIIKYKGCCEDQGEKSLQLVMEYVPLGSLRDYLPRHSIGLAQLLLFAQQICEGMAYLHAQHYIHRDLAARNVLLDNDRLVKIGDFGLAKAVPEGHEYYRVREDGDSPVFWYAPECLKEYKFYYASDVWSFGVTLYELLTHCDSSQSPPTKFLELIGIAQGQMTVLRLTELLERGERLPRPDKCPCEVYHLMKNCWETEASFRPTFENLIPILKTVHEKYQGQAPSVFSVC
Method: JAK1, JAK2, JAK3 and TYK2 Kinase Assays:
Human baculovirus-expressed JAK1, 2, 3 and TYK2 were purchased from Carna Biosciences, Inc. All four purified enzymes contain only the catalytic domain. JAK1 (aa 850-1154) and TYK2 (aa 871-1187) are expressed with an N-terminally fused GST-tag, and JAK2 and JAK3 with an N-terminally fused His-tag. Inhibition of phosphorylation of a synthetic peptide was measured in an HTRF-based assay using the TK substrate-Biotin from the CisbioHTRFKinEASE TK kit. First, 2 μl of TK solution (TK substrate-biotin in kinase buffer [1× enzymatic buffer from HTRFKinEASE TK kit, 1 mM DTT]) is added to a plate containing 1 μl prediluted compound (final assay concentration DMSO: 0.75%). Then, 5 μl kinase-ATP mix (prepared in kinase buffer) is added to the wells and the plates are incubated at RT for 20-30 min. For all four kinases a concentration of ATP that corresponded to the Km for ATP was used. The final concentrations of buffers, substrate, kinase and ATP were: JAK1: 50 mMHepes buffer pH 7.0, 0.01% BSA, 10 mM MgCl2, 1 mM DTT, 7 μM ATP, 50 nMSEB, 1 μM TK Substrate-Biotin and 5 ng JAK1; JAK2: 50 mM Hepes buffer pH 7.0, 0.01% BSA, 5 mM MgCl2, 1 mM DTT, 4 μM ATP, 1 μM TK Substrate-Biotin and 0.1 ng JAK2; JAK3: 50 mMHepes buffer pH 7.0, 0.01% BSA, 5 mM MgCl2, 1 mM DTT, 2 μM ATP, 1 μM TK Substrate-Biotin and 0.3 ng JAK3; TYK2: 50 mMHepes buffer pH 7.0, 0.01% BSA, 5 mM MgCl2, 1 mM DTT, 13 μM ATP, 50 nMSEB, 1 μM TK Substrate-Biotin and 0.8 ng TYK2. Thereafter, the kinase reaction is stopped by adding 4 μl detection mix (final concentrations: 50 mM Hepes buffer pH 7.0, 0.01% BSA, 0.8 M KF, 20 mM EDTA, 42 nM Streptavidin-XL665 and 1:400 STKAbCryptate) and the plates are incubated overnight in the dark. The HTRF signal is read using an Envision plate reader.

Compound: N#CCOc1cccc(CC(=O)N2CCN(c3ncnc4[nH]ccc34)CC3(CC3)C2)c1 [Example 17, 2-[3-[2-oxo-2-[5-(7H-pyrrolo[2,3-d]pyrimidin-4-yl)-5,8-diazaspiro[2.6]nonan-8-yl]ethyl]phenoxy]acetonitrile]
- EC50 [1]: 100 to 1000 nM
- EC50 [2]: 100 to 1000 nM
- EC50 [3]: 100 to 1000 nM
- EC50 [4]: > 1000 nM

Compound: O=C(c1cc2ccccc2s1)N1CCN(c2ncnc3[nH]ccc23)CC2(CC2)C1 [Example 18, benzothiophen-2-yl-[5-(7H-pyrrolo[2,3-d]pyrimidin-4-yl)-5,8-diazaspiro[2.6]nonan-8-yl]methanone]
- EC50 [1]: < 100 nM
- EC50 [2]: 100 to 1000 nM
- EC50 [3]: 100 to 1000 nM
- EC50 [4]: > 1000 nM

Compound: N#Cc1csc(C(=O)N2CCN(c3ncnc4[nH]ccc34)CC3(CC3)C2)c1 [Example 19, 5-[5-(7H-pyrrolo[2,3-d]pyrimidin-4-yl)-5,8-diazaspiro[2.6]nonane-8-carbonyl]thiophene-3-carbonitrile]
- EC50 [1]: 100 to 1000 nM
- EC50 [2]: < 100 nM
- EC50 [3]: 100 to 1000 nM
- EC50 [4]: > 1000 nM

Compound: NS(=O)(=O)c1ccc(CC(=O)N2CCN(c3ncnc4[nH]ccc34)CC3(CC3)C2)cc1 [Example 20, 4-[2-oxo-2-[5-(7H-pyrrolo[2,3-d]pyrimidin-4-yl)-5,8-diazaspiro[2.6]nonan-8-yl]ethyl]benzenesulfonamide]
- EC50 [1]: < 100 nM
- EC50 [2]: < 100 nM
- EC50 [3]: < 100 nM
- EC50 [4]: 100 to 1000 nM

Compound: O=C(c1cc2c(s1)CCC2)N1CCN(c2ncnc3[nH]ccc23)CC2(CC2)C1 [Example 21, 5,6-dihydro-4H-cyclopenta[b]thiophen-2-yl-[5-(7H-pyrrolo[2,3-d]pyrimidin-4-yl)-5,8-diazaspiro[2.6]nonan-8-yl]methanone]
- EC50 [1]: 100 to 1000 nM
- EC50 [2]: 100 to 1000 nM
- EC50 [3]: 100 to 1000 nM
- EC50 [4]: > 1000 nM

Compound: COc1csc(C(=O)N2CCN(c3ncnc4[nH]ccc34)CC3(CC3)C2)c1 [Example 22, (4-methoxy-2-thienyl)-[5-(7H-pyrrolo[2,3-d]pyrimidin-4-yl)-5,8-diazaspiro[2.6]nonan-8-yl]methanone]
- EC50 [1]: < 100 nM
- EC50 [2]: 100 to 1000 nM
- EC50 [3]: 100 to 1000 nM
- EC50 [4]: > 1000 nM

Compound: CNS(=O)(=O)c1csc(C(=O)N2CCN(c3ncnc4[nH]ccc34)CC3(CC3)C2)c1C [Example 23, N,4-dimethyl-5-[5-(7H-pyrrolo[2,3-d]pyrimidin-4-yl)-5,8-diazaspiro[2.6]nonane-8-carbonyl]thiophene-3-sulfonamide]
- EC50 [1]: 100 to 1000 nM
- EC50 [2]: < 100 nM
- EC50 [3]: 100 to 1000 nM
- EC50 [4]: > 1000 nM

Compound: Cc1sc(C(=O)N2CCN(c3ncnc4[nH]ccc34)CC3(CC3)C2)cc1S(N)(=O)=O [Example 24, 2-methyl-5-[5-(7H-pyrrolo[2,3-d]pyrimidin-4-yl)-5,8-diazaspiro[2.6]nonane-8-carbonyl]thiophene-3-sulfonamide]
- EC50 [1]: < 100 nM
- EC50 [2]: < 100 nM
- EC50 [3]: < 100 nM
- EC50 [4]: 100 to 1000 nM

Compound: Cc1c(S(N)(=O)=O)csc1C(=O)N1CCN(c2ncnc3[nH]ccc23)CC2(CC2)C1 [Example 25, 4-methyl-5-[5-(7H-pyrrolo[2,3-d]pyrimidin-4-yl)-5,8-diazaspiro[2.6]nonane-8-carbonyl]thiophene-3-sulfonamide]
- EC50 [1]: 100 to 1000 nM
- EC50 [2]: < 100 nM
- EC50 [3]: 100 to 1000 nM
- EC50 [4]: > 1000 nM

Compound: CNS(=O)(=O)c1cc(C(=O)N2CCN(c3ncnc4[nH]ccc34)CC3(CC3)C2)sc1C [Example 26, N,2-dimethyl-5-[5-(7H-pyrrolo[2,3-d]pyrimidin-4-yl)-5,8-diazaspiro[2.6]nonane-8-carbonyl]thiophene-3-sulfonamide]
- EC50 [1]: 100 to 1000 nM
- EC50 [2]: < 100 nM
- EC50 [3]: 100 to 1000 nM
- EC50 [4]: > 1000 nM

Compound: NS(=O)(=O)c1csc(C(=O)N2CCN(c3ncnc4[nH]ccc34)CC3(CC3)C2)c1 [Example 27, 5-[5-(7H-pyrrolo[2,3-d]pyrimidin-4-yl)-5,8-diazaspiro[2.6]nonane-8-carbonyl]thiophene-3-sulfonamide]
- EC50 [1]: 100 to 1000 nM
- EC50 [2]: < 100 nM
- EC50 [3]: < 100 nM
- EC50 [4]: > 1000 nM

Compound: CNS(=O)(=O)c1csc(C(=O)N2CCN(c3ncnc4[nH]ccc34)CC3(CC3)C2)c1 [Example 28, N-methyl-5-[5-(7H-pyrrolo[2,3-d]pyrimidin-4-yl)-5,8-diazaspiro[2.6]nonane-8-carbonyl]thiophene-3-sulfonamide]
- EC50 [1]: 100 to 1000 nM
- EC50 [2]: < 100 nM
- EC50 [3]: 100 to 1000 nM
- EC50 [4]: > 1000 nM

Compound: Cc1cc(C(=O)N2CCN(c3ncnc4[nH]ccc34)CC3(CC3)C2)ccc1S(N)(=O)=O [Example 29, 2-methyl-4-[5-(7H-pyrrolo[2,3-d]pyrimidin-4-yl)-5,8-diazaspiro[2.6]nonane-8-carbonyl]benzenesulfonamide]
- EC50 [1]: 100 to 1000 nM
- EC50 [2]: 100 to 1000 nM
- EC50 [3]: 100 to 1000 nM
- EC50 [4]: > 1000 nM

Compound: O=C(Cc1cccs1)N1CCN(c2ncnc3[nH]ccc23)CC2(CC2)C1 [Example 30, 1-[5-(7H-pyrrolo[2,3-d]pyrimidin-4-yl)-5,8-diazaspiro[2.6]nonan-8-yl]-2-(2-thienyl)ethanone]
- EC50 [1]: < 100 nM
- EC50 [2]: < 100 nM
- EC50 [3]: 100 to 1000 nM
- EC50 [4]: 100 to 1000 nM

Compound: NS(=O)(=O)c1ccc(C(=O)N2CCN(c3ncnc4[nH]ccc34)CC3(CC3)C2)cc1 [Example 31, 4-[5-(7H-pyrrolo[2,3-d]pyrimidin-4-yl)-5,8-diazaspiro[2.6]nonane-8-carbonyl]benzenesulfonamide]
- EC50 [1]: < 100 nM
- EC50 [2]: < 100 nM
- EC50 [3]: < 100 nM
- EC50 [4]: 100 to 1000 nM

Compound: NS(=O)(=O)c1ccc(C(=O)N2CCN(c3ncnc4[nH]ccc34)CC3(CC3)C2)cc1Cl [Example 32, 2-chloro-4-[5-(7H-pyrrolo[2,3-d]pyrimidin-4-yl)-5,8-diazaspiro[2.6]nonane-8-carbonyl]benzenesulfonamide]
- EC50 [1]: < 100 nM
- EC50 [2]: 100 to 1000 nM
- EC50 [3]: 100 to 1000 nM
- EC50 [4]: > 1000 nM

Compound: CN(C)S(=O)(=O)c1ccc(C(=O)N2CCN(c3ncnc4[nH]ccc34)CC3(CC3)C2)cc1 [Example 33, N,N-dimethyl-4-[5-(7H-pyrrolo[2,3-d]pyrimidin-4-yl)-5,8-diazaspiro[2.6]nonane-8-carbonyl]benzenesulfonamide]
- EC50 [1]: 100 to 1000 nM
- EC50 [2]: 100 to 1000 nM
- EC50 [3]: 100 to 1000 nM
- EC50 [4]: > 1000 nM

Compound: NS(=O)(=O)c1ccc(CCC(=O)N2CCN(c3ncnc4[nH]ccc34)CC3(CC3)C2)cc1 [Example 34, 4-[3-oxo-3-[5-(7H-pyrrolo[2,3-d]pyrimidin-4-yl)-5,8-diazaspiro[2.6]nonan-8-yl]propyl]benzenesulfonamide]
- EC50 [1]: < 100 nM
- EC50 [2]: < 100 nM
- EC50 [3]: < 100 nM
- EC50 [4]: 100 to 1000 nM

Compound: Cn1c(C(=O)N2CCN(c3ncnc4[nH]ccc34)CC3(CC3)C2)ccc1S(N)(=O)=O [Example 35, 1-methyl-5-[5-(7H-pyrrolo[2,3-d]pyrimidin-4-yl)-5,8-diazaspiro[2.6]nonane-8-carbonyl]pyrrole-2-sulfonamide]
- EC50 [1]: 100 to 1000 nM
- EC50 [2]: 100 to 1000 nM
- EC50 [3]: 100 to 1000 nM
- EC50 [4]: > 1000 nM
